Assay results taken from PubChem BioAssay AID330 (DTP/NCI, 2004).
“And” between values parts separate entries of the source, which are not always exact repeats. Identical values can stand only once. Inconclusive results and toxic doses are left out. The calls were made as follows: active = survival T/C of 150% or more; inactive = T/C below 125% in these data. Square brackets hold non-standard residues; d marks the D form. Peptide text beside a SMILES is read from it. * marks the point of attachment. ξ: configuration not given here. Cbz = O=C(OCc1ccccc1)*; ξNva = CCCC(N)C(=O)O

System: P388 leukemia ip, CD2F1 mice, survival T/C
Test: NCI In Vivo Anticancer Drug Screen. Data for tumor model P388 Leukemia (intraperitoneal) in CD2F1 (CDF1) mice
Settings: endpoint: median survival time, higher = longer survival
In short: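 Mice carrying the transplanted tumor received test compound or vehicle. Survival was recorded in each group, and the value is the treated-group measurement divided by that of the vehicle-treated control group.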

[1] = dose: 50.0 mg/kg/injection, schedule: Q01DX009 (ip), vehicle: saline
[2] = dose: 100.0 mg/kg/injection, schedule: Q01DX009 (ip), vehicle: saline
[3] = dose: 200.0 mg/kg/injection, schedule: Q01DX009 (ip), vehicle: saline
[4] = dose: 50.0 mg/kg/injection, schedule: Q01DX005 (ip), vehicle: saline
[5] = dose: 200.0 mg/kg/injection, schedule: Q01DX005 (ip), vehicle: saline
[6] = dose: 100.0 mg/kg/injection, schedule: Q04DX003 (ip), vehicle: saline with Tween-80
[7] = dose: 200.0 mg/kg/injection, schedule: Q04DX003 (ip), vehicle: saline with Tween-80
[8] = dose: 50.0 mg/kg/injection, schedule: Q01DX005 (ip), vehicle: saline with Tween-80
[9] = dose: 100.0 mg/kg/injection, schedule: Q01DX005 (ip), vehicle: saline with Tween-80
[10] = dose: 200.0 mg/kg/injection, schedule: Q01DX005 (ip), vehicle: saline with Tween-80
[11] = dose: 3.12 mg/kg/injection, schedule: Q01DX009 (ip), vehicle: saline
[12] = dose: 6.25 mg/kg/injection, schedule: Q01DX009 (ip), vehicle: saline
[13] = dose: 400.0 mg/kg/injection, schedule: Q04DX003 (ip), vehicle: saline with Tween-80
[14] = dose: 50.0 mg/kg/injection, schedule: Q01DX005 (ip), vehicle: Klucel (hydroxypropylcellulose) (HPC)
[15] = dose: 100.0 mg/kg/injection, schedule: Q01DX005 (ip), vehicle: Klucel (hydroxypropylcellulose) (HPC)
[16] = dose: 200.0 mg/kg/injection, schedule: Q01DX005 (ip), vehicle: Klucel (hydroxypropylcellulose) (HPC)

Measured: T/C

CC(=O)OC1C(=O)C2C(CC=C3CC(O)CC(O)C32C)C2CCC(C(C)C3CC(C)C(C)(C)O3)C12C (stereo unspecified)
inactive: [1] 97 % of control | dose: 100.0 mg/kg/injection, schedule: Q01DX001 (ip), vehicle: Klucel (hydroxypropylcellulose) (HPC) 100 % of control | [2] 101 % of control | dose: 200.0 mg/kg/injection, schedule: Q01DX001 (ip), vehicle: Klucel (hydroxypropylcellulose) (HPC) 97 % of control | [3] 94 % of control | dose: 400.0 mg/kg/injection, schedule: Q01DX001 (ip), vehicle: Klucel (hydroxypropylcellulose) (HPC) 96 % of control

CCN(CC)CCNC(=O)CCC(=O)O
inactive: [4] 102 % of control | dose: 100.0 mg/kg/injection, schedule: Q01DX005 (ip), vehicle: saline 100 % of control | [5] 100 % of control

C=C(COC(C)=O)[C@H](C)C(=O)C1OCOC(C2CC(=O)NC(=O)C2)[C@@H]1OC(C)=O (stereo partly specified)
inactive: dose: 0.01 mg/kg/injection, schedule: Q01DX009 (ip), vehicle: distilled water + alcohol 102 % of control | dose: 0.03 mg/kg/injection, schedule: Q01DX009 (ip), vehicle: distilled water + alcohol 102 % of control | dose: 0.06 mg/kg/injection, schedule: Q01DX009 (ip), vehicle: distilled water + alcohol 102 % of control | dose: 0.12 mg/kg/injection, schedule: Q01DX009 (ip), vehicle: distilled water + alcohol 109 % of control

COc1cc2c3cc1Oc1c(O)c(OC)cc4c1[C@H](Cc1ccc(O)c(c1)Oc1ccc(cc1)C[C@H]3N(C)CC2)N(C)CC4
inactive: dose: 37.5 mg/kg/injection, schedule: Q01DX009 (ip), vehicle: Klucel (hydroxypropylcellulose) (HPC) 98 % of control

CC[n+]1cccc2ccccc21
inactive: [6] 101 % of control | [7] 94 % of control

CC(=O)CSCP(=O)(c1ccccc1)c1ccccc1
inactive: [8] 100 % of control | [9] 99 % of control | [10] 99 % of control

O=[N+]([O-])OI(c1ccccc1)c1ccccc1
inactive: dose: 1.56 mg/kg/injection, schedule: Q01DX009 (ip), vehicle: saline 100 % of control and 101 % of control (2×) | [11] 101 % of control and 104 % of control

C[CH2][Sn]([CH2]C)([N]=C=S)[N]=C=S
inactive: [11] 99 % of control and 100 % of control | [12] 86 % of control and 93 % of control

NC(=S)N/N=C\c1nccc2c(N)cccc12
active: dose: 3.13 mg/kg/injection, schedule: Q01DX009 (ip), vehicle: saline 161 % of control | dose: 6.25 mg/kg/injection, schedule: Q01DX009 (ip), vehicle: saline with Tween-80 153 % of control | [12] 161 % of control | dose: 12.5 mg/kg/injection, schedule: Q01DX009 (ip), vehicle: saline with Tween-80 162 % of control | dose: 12.5 mg/kg/injection, schedule: Q01DX009 (ip), vehicle: saline 150 % of control and 166 % of control | dose: 18.8 mg/kg/injection, schedule: Q04DX003 (ip), vehicle: saline 155 % of control | dose: 25.0 mg/kg/injection, schedule: Q01DX009 (ip), vehicle: saline 167 % of control | dose: 50.0 mg/kg/injection, schedule: Q01DX009 (ip), vehicle: saline with Tween-80 152 % of control and 155 % of control | [1] 168 % of control and 181 % of control | dose: 75.0 mg/kg/injection, schedule: Q01DX009 (ip), vehicle: saline with Tween-80 150 % of control | dose: 75.0 mg/kg/injection, schedule: Q04DX003 (ip), vehicle: saline 155 % of control | dose: 150.0 mg/kg/injection, schedule: Q04DX003 (ip), vehicle: saline 172 % of control

O=C1CSC(c2ccccc2)N1c1nncs1 (stereo unspecified)
inactive: dose: 30.0 mg/kg/injection, schedule: Q01DX005 (ip), vehicle: Klucel (hydroxypropylcellulose) (HPC) 100 % of control | dose: 60.0 mg/kg/injection, schedule: Q01DX005 (ip), vehicle: Klucel (hydroxypropylcellulose) (HPC) 101 % of control | dose: 120.0 mg/kg/injection, schedule: Q01DX005 (ip), vehicle: Klucel (hydroxypropylcellulose) (HPC) 101 % of control | dose: 240.0 mg/kg/injection, schedule: Q01DX005 (ip), vehicle: Klucel (hydroxypropylcellulose) (HPC) 103 % of control

CCC(=O)C(C)C(=O)CCC(=O)Nc1cc(Cl)ccc1Cl (stereo unspecified)
inactive: dose: 60.0 mg/kg/injection, schedule: Q01DX005 (ip), vehicle: saline 101 % of control | dose: 120.0 mg/kg/injection, schedule: Q01DX005 (ip), vehicle: saline 103 % of control | dose: 240.0 mg/kg/injection, schedule: Q01DX005 (ip), vehicle: saline 103 % of control

C/C=C/C=C1/OC(C)=C(C(=O)OCC)C1=O
inactive: dose: 6.25 mg/kg/injection, schedule: Q01DX009 (ip), vehicle: Klucel (hydroxypropylcellulose) (HPC) 107 % of control | dose: 12.5 mg/kg/injection, schedule: Q01DX009 (ip), vehicle: Klucel (hydroxypropylcellulose) (HPC) 111 % of control | dose: 50.0 mg/kg/injection, schedule: Q01DX009 (ip), vehicle: Klucel (hydroxypropylcellulose) (HPC) 123 % of control

S=C([S-])N[N-]c1ccccc1.S=C([S-])N[N-]c1ccccc1.[Ni]
inactive: [6] 97 % of control | [7] 100 % of control | [13] 100 % of control

COc1ccc2cc3[nH]c(=O)cc(O)c3cc2c1OC
inactive: dose: 12.5 mg/kg/injection, schedule: Q01DX009 (ip), vehicle: other 96 % of control | dose: 25.0 mg/kg/injection, schedule: Q01DX009 (ip), vehicle: other 106 % of control | dose: 50.0 mg/kg/injection, schedule: Q01DX009 (ip), vehicle: other 101 % of control | dose: 100.0 mg/kg/injection, schedule: Q01DX009 (ip), vehicle: other 89 % of control | dose: 200.0 mg/kg/injection, schedule: Q01DX009 (ip), vehicle: other 89 % of control

O=S(=O)(Nc1nccs1)c1ccc(NCc2c3ccccc3nc3ccccc23)cc1
inactive: dose: 100.0 mg/kg/injection, schedule: Q04DX002 (ip), vehicle: Klucel (hydroxypropylcellulose) (HPC) 101 % of control | dose: 200.0 mg/kg/injection, schedule: Q04DX002 (ip), vehicle: Klucel (hydroxypropylcellulose) (HPC) 100 % of control | dose: 400.0 mg/kg/injection, schedule: Q04DX002 (ip), vehicle: Klucel (hydroxypropylcellulose) (HPC) 105 % of control

Nc1cc(-c2ccccc2)nn1-c1nnc(-c2ccccc2)c(-c2ccccc2)n1
inactive: [8] 95 % of control | [9] 100 % of control | [10] 95 % of control

COc1ccc(-c2c(N3CCOCC3)oc3cc(N4CCOCC4)c(O)cc23)cc1
inactive: dose: 25.0 mg/kg/injection, schedule: Q01DX005 (ip), vehicle: saline with Tween-80 100 % of control | [8] 98 % of control | [9] 100 % of control | [10] 91 % of control

CCCC(NC(=O)OCc1ccccc1)C(=O)NCC(N)=O (stereo unspecified) (Cbz-[ξNva]-Gly-NH2)
inactive: [14] 103 % of control | [15] 100 % of control | [16] 100 % of control

Cn1cnc([N+](=O)[O-])c1SCC(N)C(=O)O (stereo unspecified)
inactive: [14] 94 % of control | [15] 94 % of control | [16] 94 % of control

COC(=O)C1C(=O)COC1C (stereo unspecified)
inactive: [4] 102 % of control | [5] 102 % of control

COc1cc(CCN)ccc1O
inactive: [2] 104 % of control and 98 % of control | [3] 100 % of control and 102 % of control | dose: 400.0 mg/kg/injection, schedule: Q01DX009 (ip), vehicle: saline 100 % of control and 107 % of control | dose: 600.0 mg/kg/injection, schedule: Q01DX009 (ip), vehicle: saline 102 % of control and 114 % of control

CCC[CH2][Sn]([CH2]CCC)([S]C(C)=O)[S]C(C)=O
inactive: dose: 12.5 mg/kg/injection, schedule: Q01DX001 (ip), vehicle: Klucel (hydroxypropylcellulose) (HPC) 113 % of control | dose: 25.0 mg/kg/injection, schedule: Q01DX001 (ip), vehicle: Klucel (hydroxypropylcellulose) (HPC) 105 % of control | dose: 50.0 mg/kg/injection, schedule: Q01DX001 (ip), vehicle: Klucel (hydroxypropylcellulose) (HPC) 114 % of control

CCCCC(=O)N1SC(NC(=O)OC)=Nc2ccccc21
inactive: [14] 101 % of control | [15] 100 % of control | [16] 109 % of control

NC(C(=O)O)C(O)c1ccc2c(c1)OCO2 (stereo unspecified)
inactive: [6] 100 % of control | [7] 100 % of control | [13] 100 % of control

COC(=O)C1(CC(=O)c2ccc(Cl)cc2Cl)NC(=S)NC(=O)C1C#N (stereo unspecified)
inactive: dose: 60.0 mg/kg/injection, schedule: Q01DX005 (ip), vehicle: saline with Tween-80 91 % of control | dose: 120.0 mg/kg/injection, schedule: Q01DX005 (ip), vehicle: saline with Tween-80 92 % of control
